Assay results reported in patent publication US8481459B2, “Chemical inhibitors of ethylene biosynthesis” (Academia Sinica, priority 2010, dated 2013).

System: gene expression in etiolated eto1-4 seedlings
Experiment: Transcriptional profiling (ATH1 GeneChip microarray) of etiolated eto1-4 seedlings
Assay type: in vivo, Arabidopsis thaliana
Procedure: For chemical treatments, seeds were sown on 0.5×MS agar medium supplemented with 10 μM chemicals (AVG, compounds 9393, 9370, and 7303) or DMSO (as control). Arabidopsis seeds were stratified in the dark at 4° C. for 4 days, then germinated in the dark for 3 days at 22° C. Approximately 2,000 etiolated seedlings of the wild type or eto1-4 were used to collect tissues for preparation of total RNA in each microarray experiment with Arabidopsis ATH1 GeneChip (Affymetrix). Extraction of RNA followed an established protocol (Chang, et al. (1993) Plant Mol. Biol. Rep. 11, 113-117). Total RNA (10 μg) was used to prepare biotinylated cRNA for hybridization to ATH1 GeneChip in the experiments disclosed herein. Experiments were repeated by 2 independent biological duplicates, and candidate genes present in both experiments were selected for further analysis. The MASS method was used for data analysis and normalization by all sample medium. Candidate genes were selected by the following criteria. First, genes with 1.5-fold differential expression between the wild type and eto1-4 were selected as the master gene pool, which was then used for comparison in treatments with AVG and individual exemplary compounds. Data were presented in hierarchical clustering and Venn diagram format. Agilent GeneSpring GX and Bioconductor software were used to analyze the expression profile data. Gene Ontology descriptions were generated by GeneSpring GX and further referred to the TAR GO database. Raw data are available in the GEO database (http://www.ncbi.nlm.nih.gov/geo) with Accession no. GSE20897.
The filtered and normalized expression data set from 22810 probes on the ATH1 Genechip was used for hierarchical clustering of gene expression profiles for comparison between AVG and the exemplary invention compounds in eto1-4. It was identified that 1,446 genes show at least 1.5-fold difference in expression between the WT and eto1-4 and used them as the master gene pool for clustering analysis (FIG. 7A). […] These genes likely contribute to the etiolated phenotype of eto1-4 by responding to elevated endogenous ethylene. To determine whether the exemplary compounds have specific r overlapping functions with AVG to suppress the eto1-4 phenotype, genes that are regulated by individual exemplary invention compounds and AVG for Venn diagram analysis were clustered (FIG. 7B). More than 63% of genes (356/561 for compound 9393; 389/561 for compound 9370; 399/561 for compound 7303; FIG. 7B) with expression associated with AVG were co-regulated by the exemplary invention compounds, which indicates an overlap function in suppression of the ethylene phenotype in eto1-4. […] Next genes co-regulated by all of the exemplary invention compounds and AVG were examined by performing a clustering analysis using the co-regulated genes identified in FIG. 7B: 356 (compound 9393 vs AVG), 389 (compound 9370 vs AVG) and 399 genes (compound 7303 vs AVG). It was uncovered that 276 genes were co-regulated by all of the exemplary invention compounds and AVG (FIG. 7C and Table 2). On the basis of GO descriptions generated by Gene Spring GX and TAIR database, the 276 genes were divided into subgroups related to their biological functions (Table 2). […] In addition, stress- and pathogenesis-related genes were among the co-regulated genes, possibly because ethylene is involved in both biotic and abiotic stresses.
Genes (1446 non-redundant loci) were selected by 1.5-fold differential expression between eto1-4 and WT as the master pool for analysis. These genes were used for comparison between chemical treatments by AVG and the exemplary invention compounds. The finalized 276 genes that are co-regulated by AVG and all of the exemplary invention compounds are shown. Locus ID also present in Nemhauser et al. (Nemhauser, et al. (2006) Cell 126, 467-475).

[1] = of 1446 genes differentially expressed between WT and eto1-4, 10 μM
[2] = ratio eto1-4 treated to eto1-4 (no treatment)

## CC1(C)CC(=O)c2cnc(NC3CCCC3)nc2C1 [Compound 9393]
Of 561 genes associated with AVG, 10 μM
  number of genes co-regulated with AVG: 356 genes
[1]
  number of genes regulated (expression reverted close to WT): 629 genes
  percentage of genes regulated (expression reverted close to WT): 43.5%
Of all genes regulated by the compound (629, 728, 650), 10 μM
  number of genes regulated specifically, not related to AVG treatment: 273 genes
[2]
  Signal Fold Change AT1G03457, unknown biological function: 2.24
  Signal Fold Change AT1G03660, unknown biological function: 1.84
  Signal Fold Change AT1G05010 ACC oxidase: 0.28
  Signal Fold Change AT1G05760 jacalin lectin protein: 2.69
  Signal Fold Change AT1G06720 expressed protein: 1.15
  Signal Fold Change AT1G07280, unknown biological function: 0.44
  Signal Fold Change AT1G07560 leucine-rich repeat protein kinase: 2.23
  Signal Fold Change AT1G08650 phosphoenolpyruvate carboxylase kinase: 1.96
  Signal Fold Change AT1G08990 glycogenin glucosyltransferase: 1.61
  Signal Fold Change AT1G09530 phytochrome interacting factor 3: 0.35
  Signal Fold Change AT1G10760 starch excess protein (SEX1): 0.46
  Signal Fold Change AT1G13430, response to cytokinin stimulus, sulfotransferase protein: 0.38
  Signal Fold Change AT1G14540 anionic peroxidase: 0.46
  Signal Fold Change AT1G15380 lactoylglutathione lyase: 1.96
  Signal Fold Change AT1G17970, unknown biological function: 2.17
  Signal Fold Change AT1G18880 proton-dependent oligopeptide transport (POT) protein: 2.00
  Signal Fold Change AT1G20190, cell wall organization and biogenesis, expansin (EXP11): 0.43
  Signal Fold Change AT1G22740 Ras-related protein (RAB7): 2.34
  Signal Fold Change AT1G23060, unknown biological function: 0.40
  Signal Fold Change AT1G26930, unknown biological function: 0.50
  Signal Fold Change AT1G27380 p21-rho-binding domain-containing protein: 2.10
  Signal Fold Change AT1G29520, unknown biological function: 1.83
  Signal Fold Change AT1G30750, unknown biological function: 2.23
  Signal Fold Change AT1G31710 copper amine oxidase: 3.17
  Signal Fold Change AT1G32410 vacuolar protein sorting 55 protein: 1.62
  Signal Fold Change AT1G32560 late embryogenesis abundant group 1 domain-containing protein: 1.35
  Signal Fold Change AT1G33470, unknown biological function: 2.32
  Signal Fold Change AT1G33790, unknown biological function: 0.20
  Signal Fold Change AT1G34040, unknown biological function: 1.69
  Signal Fold Change AT1G35350, unknown biological function: 3.85
  Signal Fold Change AT1G35612, unknown biological function: 3.38
  Signal Fold Change AT1G42470, unknown biological function: 4.11
  Signal Fold Change AT1G44800, unknown biological function: 1.86
  Signal Fold Change AT1G44830 AP2-containing transcription factor: 0.34
  Signal Fold Change AT1G48480 leucine-rich repeat trans-membrane protein kinase: 2.65
  Signal Fold Change AT1G49660 expressed protein: 0.38
  Signal Fold Change AT1G50560 cytochrome P450: 1.77
  Signal Fold Change AT1G52830 auxin-responsive protein: 3.44
  Signal Fold Change AT1G56010 transcription activator NAC1: 2.29
  Signal Fold Change AT1G56020, unknown biological function: 0.60
  Signal Fold Change AT1G58070, unknown biological function: 2.13
  Signal Fold Change AT1G59590, unknown biological function: 2.57
  Signal Fold Change AT1G59740 proton-dependent oligopeptide transport (POT) protein: 0.46
  Signal Fold Change AT1G62290 aspartyl protease protein: 0.32
  Signal Fold Change AT1G62510 lipid transfer protein: 1.63
  Signal Fold Change AT1G62620, unknown biological function: 2.65
  Signal Fold Change AT1G64200 V-ATPase E subunit: 2.10
  Signal Fold Change AT1G65510, unknown biological function: 2.13
  Signal Fold Change AT1G65920, unknown biological function: 0.37
  Signal Fold Change AT1G66230 myb transcription factor (MYB20): 3.04
  Signal Fold Change AT1G67030 zinc finger (C2H2 type) protein: 6.01
  Signal Fold Change AT1G68230, unknown biological function: 2.42
  Signal Fold Change AT1G68520 zinc finger (B-box type) protein: 2.45
  Signal Fold Change AT1G69570 Dof-type zinc finger-containing protein: 3.88
  Signal Fold Change AT1G70210 cyclin delta-1: 3.05
  Signal Fold Change AT1G70850 Bet v I allergen protein: 7.24
  Signal Fold Change AT1G70890 major latex protein: 5.37
  Signal Fold Change AT1G71030 myb transcription factor (MYB2): 4.86
  Signal Fold Change AT1G71740, unknown biological function: 2.19
  Signal Fold Change AT1G72230 plastocyanin like protein: 2.45
  Signal Fold Change AT1G73220 sugar transporter protein: 2.95
  Signal Fold Change AT1G73300 serine carboxypeptidase S10 protein: 1.94
  Signal Fold Change AT1G73310 serine carboxypeptidase S10 protein: 2.66
  Signal Fold Change AT1G73330 protease inhibitor: 2.84
  Signal Fold Change AT1G73590 auxin efflux carrier protein: 2.02
  Signal Fold Change AT1G73640, small GTPase mediated signal transduction, Ras-related GTP-binding protein: 1.94
  Signal Fold Change AT1G73830 bHLH protein: 0.28
  Signal Fold Change AT1G75500, unknown biological function: 3.12
  Signal Fold Change AT1G76220, unknown biological function: 3.40
  Signal Fold Change AT1G76500, photomorphogenesis, DNA-binding protein: 0.39
  Signal Fold Change AT1G76540 cell division control protein: 2.16
  Signal Fold Change AT1G76790, unknown biological function: 2.90
  Signal Fold Change AT1G78240 dehydration-responsive protein: 0.49
  Signal Fold Change AT1G80380 phosphoribulokinase: 2.17
  Signal Fold Change AT2G01910, microtubule nucleation, microtubule associated protein (MAP65/ASE1) protein: 2.21
  Signal Fold Change AT2G02820 myb transcription factor (MYB88): 3.34
  Signal Fold Change AT2G02850 plantacyanin: 0.27
  Signal Fold Change AT2G16580 auxin-responsive protein: 2.33
  Signal Fold Change AT2G16990, unknown biological function: 2.49
  Signal Fold Change AT2G19590 ACC oxidase: 0.29
  Signal Fold Change AT2G19970, unknown biological function: 2.19
  Signal Fold Change AT2G20080, unknown biological function: 4.77
  Signal Fold Change AT2G20670, unknown biological function: 2.36
  Signal Fold Change AT2G21820, unknown biological function: 1.08
  Signal Fold Change AT2G21880 Ras-related GTP-binding protein: 3.83
  Signal Fold Change AT2G22860 phytosulfokines 2 (PSK2): 2.20
  Signal Fold Change AT2G24150 expressed protein (response to hormone stimulus): 2.23
  Signal Fold Change AT2G25900 zinc finger (CCCH-type) protein: 1.27
  Signal Fold Change AT2G26070 expressed protein (response to ethylene stimulus): 0.32
  Signal Fold Change AT2G26440 pectinesterase protein: 0.36
  Signal Fold Change AT2G26740 epoxide hydrolase: 0.29
  Signal Fold Change AT2G27140 heat shock protein: 2.32
  Signal Fold Change AT2G27370, unknown biological function: 1.90
  Signal Fold Change AT2G28305, unknown biological function: 2.70
  Signal Fold Change AT2G28410, unknown biological function: 2.86
  Signal Fold Change AT2G29340 short-chain dehydrogenase: 0.47
  Signal Fold Change AT2G29440, toxin catabolic process, glutathione S-transferase: 0.31
  Signal Fold Change AT2G30360 CBL-interacting protein kinase 11 (CIPK11): 1.81
  Signal Fold Change AT2G33380 calcium-binding RD20 protein: 0.26
  Signal Fold Change AT2G33990, unknown biological function: 2.38
  Signal Fold Change AT2G34300, unknown biological function: 0.40
  Signal Fold Change AT2G34500 cytochrome P450: 3.82
  Signal Fold Change AT2G34510, unknown biological function: 2.66
  Signal Fold Change AT2G34700, unknown biological function: 1.10
  Signal Fold Change AT2G35300 late embryogenesis abundant group 1 domain-containing protein: 1.93
  Signal Fold Change AT2G35710 glycogenin glucosyltransferase: 2.39
  Signal Fold Change AT2G36350 protein kinase: 0.54
  Signal Fold Change AT2G36410, unknown biological function: 2.46
  Signal Fold Change AT2G37130 peroxidase 21: 1.93
  Signal Fold Change AT2G38760, unknown biological function: 2.89
  Signal Fold Change AT2G38790, unknown biological function: 1.78
  Signal Fold Change AT2G39010 aquaporin: 1.84
  Signal Fold Change AT2G39310, unknown biological function: 1.97
  Signal Fold Change AT2G39980, unknown biological function: 0.14
  Signal Fold Change AT2G40420 amino acid transporter: 1.87
  Signal Fold Change AT2G41090, unknown biological function: 0.26
  Signal Fold Change AT2G41230, unknown biological function: 0.08
  Signal Fold Change AT2G42320, unknown biological function: 0.55
  Signal Fold Change AT2G43050 pectinesterase protein: 2.06
  Signal Fold Change AT2G43535 trypsin inhibitor: 4.42
  Signal Fold Change AT2G44110 seven transmembrane MLO protein: 0.45
  Signal Fold Change AT2G44130 kelch repeat containing F-box protein: 3.36
  Signal Fold Change AT2G47510 fumarate hydratase: 0.53
  Signal Fold Change AT2G47550 pectinesterase protein: 0.39
  Signal Fold Change AT2G48030, unknown biological function: 2.18
  Signal Fold Change AT3G04010 glycosyl hydrolase: 2.09
  Signal Fold Change AT3G05990, signal transduction, phosphodiesterase leucine-rich repeat protein: 2.05
  Signal Fold Change AT3G09020, unknown biological function: 2.36
  Signal Fold Change AT3G09780 protein kinase: 0.55
  Signal Fold Change AT3G10080, unknown biological function: 2.22
  Signal Fold Change AT3G10340 phenylalanine ammonia-lyase: 2.17
  Signal Fold Change AT3G11550, unknown biological function: 2.20
  Signal Fold Change AT3G12030, DNA repair, expressed protein: 1.73
  Signal Fold Change AT3G12500 basic endocexemplary inase: 1.85
  Signal Fold Change AT3G13980, unknown biological function: 6.83
  Signal Fold Change AT3G14370 protein kinase: 0.30
